Results published in PMC4991483 (Oncotarget, 2016).
“Also recorded” adds a separate entry of the source.

Legend:
purified STAT3 [1] = target: T1, purified STAT3 (Homo sapiens, UniProt P40763); assay: In vitro kinetic labeling of purified STAT3 protein by fluorescent probe (SDS-PAGE fluorescence); type: biochemical; details: 100 μM, 0-4 h, 4°C
Procedure: 1 μg of purified STAT3 (SignalChem) protein was incubated with 100 μM 4a at 4°C. At the indicated time points the reaction was quenched with Laemmli loading buffer containing 1.43 M β-mercaptoethanol. Quenched samples were then subjected to 4-20% SDS-PAGE and imaged using the Chemi-Doc MP system (BIO-RAD). Following gel quantification (Image Lab software, BIO-RAD) the data points were plotted and visualized by GraphPad PRISM software.

purified STAT3 [2] = target: T1, purified STAT3; assay: Gel-based STAT protein isoform labeling, STAT3; type: biochemical; details: 100 μM, 16 h, 4°C
Procedure: (§1) 1.0 μg of purified STAT3, STAT5, and STAT1 (SignalChem) were incubated with 100 uM of 4a for 16 h at 4°C. Samples were subjected to 4-20% SDS-PAGE and imaged using the Chemi-Doc MP (BIO-RAD).

MDA-MB-231 cells = assay: Live cell dosing of MDA-MB-231 cells, fluorescent protein labeling (SDS-PAGE); type: cell-based; details: 0, 50, 100, 200 μM, 6 h, 37°C
Procedure: (§2) To investigate the reactivity of 4a in cell lysates, 5 × 10^6 MDA-MB-231 cells were lysed with 200 μL RIPA buffer (Sigma-Aldrich). Lysates were treated with 0-500 μM of compound for 16 h at 4°C and subjected to 4-20% SDS-PAGE. To investigate the in cellulo activity 2 × 10^6 MDA-MB-231 cells were seeded in […] dishes. The following day cells were treated with 0-200 μM of 4a at 37°C, 5% CO2 for 6 h. Cells were lysed using 200 μL RIPA buffer (Sigma-Aldrich) and the lysates were subjected to 4-20% SDS-PAGE. Gels were visualized using the Chemi-Doc MP system. (BIO-RAD). Total protein levels were visualized using Coomassie Brilliant Blue stain. An identical protocol was performed for 4b for direct comparison with 4a.

purified STAT5 = target: T2, purified STAT5 (Homo sapiens, UniProt P42229); assay: Gel-based STAT protein isoform labeling, STAT5; type: biochemical; details: 100 μM, 16 h, 4°C
T2 construct: His; purchased SignalChem S56-54H
T2 sequence (P42229 1-794): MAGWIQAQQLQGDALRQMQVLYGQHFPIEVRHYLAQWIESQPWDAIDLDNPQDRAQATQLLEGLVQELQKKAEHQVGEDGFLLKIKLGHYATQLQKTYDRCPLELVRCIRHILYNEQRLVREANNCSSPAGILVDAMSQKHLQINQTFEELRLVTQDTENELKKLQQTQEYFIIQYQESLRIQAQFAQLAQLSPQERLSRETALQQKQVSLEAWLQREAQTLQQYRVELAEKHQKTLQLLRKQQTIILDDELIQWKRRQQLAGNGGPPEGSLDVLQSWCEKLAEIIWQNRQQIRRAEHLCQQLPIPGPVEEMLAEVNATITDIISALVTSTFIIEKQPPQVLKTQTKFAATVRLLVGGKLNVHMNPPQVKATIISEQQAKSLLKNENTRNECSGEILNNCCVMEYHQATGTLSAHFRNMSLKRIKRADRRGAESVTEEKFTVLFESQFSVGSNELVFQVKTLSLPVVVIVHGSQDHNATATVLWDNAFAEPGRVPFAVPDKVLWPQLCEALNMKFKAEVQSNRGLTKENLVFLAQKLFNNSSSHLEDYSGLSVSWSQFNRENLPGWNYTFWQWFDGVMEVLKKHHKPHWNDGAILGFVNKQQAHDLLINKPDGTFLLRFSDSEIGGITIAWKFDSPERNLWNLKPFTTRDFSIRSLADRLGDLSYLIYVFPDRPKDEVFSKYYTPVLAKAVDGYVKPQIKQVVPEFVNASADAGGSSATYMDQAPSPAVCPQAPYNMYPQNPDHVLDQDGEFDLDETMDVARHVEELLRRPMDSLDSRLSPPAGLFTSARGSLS
Procedure: as §1

purified STAT1 = target: T3, purified STAT1 (Homo sapiens, UniProt P42224); assay: Gel-based STAT protein isoform labeling, STAT1; type: biochemical; details: 100 μM, 16 h, 4°C
T3 construct: GST; purchased SignalChem S52-54G
T3 sequence (P42224 1-712 isoform P42224-2): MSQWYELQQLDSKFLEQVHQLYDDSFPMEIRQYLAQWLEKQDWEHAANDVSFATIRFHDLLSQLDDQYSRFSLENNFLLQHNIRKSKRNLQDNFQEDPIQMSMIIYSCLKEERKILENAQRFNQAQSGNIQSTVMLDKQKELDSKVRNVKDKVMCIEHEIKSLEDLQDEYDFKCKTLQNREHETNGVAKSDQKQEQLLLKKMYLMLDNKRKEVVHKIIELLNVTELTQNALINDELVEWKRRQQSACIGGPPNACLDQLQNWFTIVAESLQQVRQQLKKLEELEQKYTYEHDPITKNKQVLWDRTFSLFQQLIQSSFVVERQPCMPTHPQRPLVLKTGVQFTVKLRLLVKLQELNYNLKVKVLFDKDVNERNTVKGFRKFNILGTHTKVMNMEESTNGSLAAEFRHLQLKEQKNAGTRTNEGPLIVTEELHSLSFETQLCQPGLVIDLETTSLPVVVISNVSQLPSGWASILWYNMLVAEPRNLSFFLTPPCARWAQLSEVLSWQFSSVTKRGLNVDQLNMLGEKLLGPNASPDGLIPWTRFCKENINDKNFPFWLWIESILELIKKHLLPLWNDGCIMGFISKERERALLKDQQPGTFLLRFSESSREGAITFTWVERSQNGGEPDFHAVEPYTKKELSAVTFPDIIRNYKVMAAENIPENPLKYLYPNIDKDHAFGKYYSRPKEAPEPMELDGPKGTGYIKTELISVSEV
Procedure: as §1

[3] = system: pSTAT3 in MDA-MB-231 cells; assay: Immunoblotting for activated pSTAT3 levels in MDA-MB-231 cells; type: cell-based; details: increasing concentrations
Procedure: as §2
Lysates were reduced, boiled, subjected to 4-20% SDS-PAGE and transferred to LF-PVDF membranes. Membranes were blocked with 3% BSA and incubated with pSTAT3 (Abcam ab76315), STAT3 (Cell Signaling 4904) or B-Actin (Cell signaling 3700) at 4°C overnight. Membranes were then probed with either anti-mouse IgG Alexa Flour 488 (Cell Signaling 4408) or anti-rabbit IgG Alexa Fluor 647 (Cell Signaling 4414) for 1 h at room temperature. Membranes were visualized using the Chemi-Doc MP System (BIO-RAD).

MDA-MB-231 cell lysates = assay: Fluorescent labeling of MDA-MB-231 whole cell lysates (SDS-PAGE); type: biochemical; details: for fluorescent labeling of protein content of cell lysates, O-tosyl vs sulfonamide probe: 100 μM
Procedure: as §2

[4] = HPLC-based glutathione (GSH) reactivity / chemical stability assay, 10 mM GSH with TCEP-HCl; details: 100 μM compound; for K (kobs), one phase decay / Tau, one phase decay: 10 mM TCEP-HCl, 50 mM HEPES pH 7.4; for reactivity with GSH: 10 h timescale
Procedure: (§3) From 10 mM compound stock solutions in DMSO 10 μL aliquots were transferred to an analytical HPLC vial containing 990 μL of reaction buffer (10.0 mM reduced GSH, 10.0 mM tris(2-carboxyethyl)phosphine hydrochloride (TCEP-HCl) and 50 mM HEPES buffered to pH 7.4) directly preceding 40.0 μL injections continued over a periodic time course. The process was automated by a Hewlett Packard Series 1100 analytical HPLC system fitted with an Agilent ZORBAX 3.5 μm Eclipse XDB-C18 column (23.0–24.0°C) under a linear elution gradient from H2O (double distilled and de-ionized to 18.2 MΩ cm) with 0.10 v/v % TFA to 100% HPLC grade CH3CN over 8.00 min followed by 2.00 min of sustained CH3CN under a 1.200 mL min^−1 flow rate. […] The data, measured in three replicates was fit to a one-phase exponential decay model (GraphPad PRISM) and kinetic parameters extracted from (1).
(1) A(t)=(A0−A∞)e^−kobs^t+A∞

glutathione (GSH) = assay: physchem; details: HEPES buffer with reduced glutathione (GSH) and TCEP-HCl, pH 7.4
Procedure: as §3
(1) A(t)=(A0−A∞)e^−kobs^t+A∞

STAT3 = details: cited from earlier work
STAT3:DNA binding = details: approximate, reported value; read-out: approximate IC50 for the disruption of STAT3:DNA binding; cited from earlier work
activated STAT3 dimer = system: activated STAT3 dimer; parameters: method as in PMID 21618433; details: STAT3 EMSA assay; read-out: inhibition of activated STAT3 dimerization; cited from earlier work
[5] = target: recombinant, full-length STAT3 (Homo sapiens, UniProt P40763); assay: Incubation of recombinant full-length STAT3 with S3I-201, tryptic digestion and LC-MS/MS; details: 500 μM S3I-201 (80-fold molar excess), 1 h, 37°C
Sequence of recombinant, full-length STAT3 (P40763 whole entry): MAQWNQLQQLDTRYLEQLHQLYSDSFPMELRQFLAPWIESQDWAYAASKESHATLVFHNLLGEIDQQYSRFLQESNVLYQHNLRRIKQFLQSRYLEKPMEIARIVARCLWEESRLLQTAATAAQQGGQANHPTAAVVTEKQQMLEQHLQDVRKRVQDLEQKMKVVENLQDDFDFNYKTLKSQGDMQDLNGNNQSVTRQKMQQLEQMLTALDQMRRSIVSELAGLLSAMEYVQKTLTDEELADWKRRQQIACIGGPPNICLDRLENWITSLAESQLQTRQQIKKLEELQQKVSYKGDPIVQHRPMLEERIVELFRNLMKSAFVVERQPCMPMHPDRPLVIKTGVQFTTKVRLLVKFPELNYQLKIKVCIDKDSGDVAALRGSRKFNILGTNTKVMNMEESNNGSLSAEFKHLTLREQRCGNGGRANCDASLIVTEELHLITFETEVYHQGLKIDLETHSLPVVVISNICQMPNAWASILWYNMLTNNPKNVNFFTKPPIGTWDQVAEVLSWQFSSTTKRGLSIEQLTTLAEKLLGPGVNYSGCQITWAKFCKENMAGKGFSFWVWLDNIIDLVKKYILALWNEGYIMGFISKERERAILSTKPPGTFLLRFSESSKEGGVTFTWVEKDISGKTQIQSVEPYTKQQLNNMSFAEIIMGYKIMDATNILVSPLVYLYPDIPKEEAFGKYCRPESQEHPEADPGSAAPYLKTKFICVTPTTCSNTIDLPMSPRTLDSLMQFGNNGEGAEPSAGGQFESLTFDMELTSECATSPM
Procedure: The incubation was then quenched by the addition of dithiothreitol (DTT) to a final concentration of 0.5 mM and incubation at 55°C for 30 min. Free sulfhydryl groups were alkylated with 2-iodoacetamide (Sigma) at a final concentration of 1.5 mM for 45 min at room temperature. The samples were subjected to trypsin (Promega) digestion (0.5 μg of trypsin per reaction), lyophilized, re-suspended in 0.1% formic acid, and desalted using ZipTip C18 (EMD Millipore) prior to analysis. Samples were analyzed by LC-MS/MS on a nanoLC ultra HPLC system (Eksigent) coupled to a Thermo Scientific Orbitrap-Elite.
The aqueous and organic mobile phases consisted of 0.1% formic acid in water or CH3CN respectively. Organic mobile phase composition was varied over each hour long LC-MS/MS analysis as follows: 2% from 0 to 1 min, 10% to 35% from 1 to 35 min, 80% from 35.5 to 44.5 min, 2% from 45 to 60 min.

T1 sequence (P40763 whole entry): as above

| half-life at 100 μM (glutathione (GSH)) [h] | reactivity with GSH [4] | SMILES | K (kobs), one phase decay [4] | Tau, one phase decay [4] | further results |
| --- | --- | --- | --- | --- | --- |
|  |  | Cc1ccc(S(=O)(=O)OCC(=O)N(Cc2cn(CCOCCOCCOCCNS(=O)(=O)c3cccc4c(N(C)C)cccc34)nn2)c2ccc(C(=O)O)c(O)c2)cc1 [4a] |  |  | fluorescent labeling of purified STAT3 over time course (purified STAT3 [1]): time dependent increase in fluorescent signal; fluorescent labeling of purified STAT3 (purified STAT3 [2]): non-specific fluorescent labeling of all three STAT isoforms; fluorescent labeling of intracellular proteins in whole cells (MDA-MB-231 cells): increasing levels of fluorescent intensities following the dose of reporter; fluorescent labeling of intracellular proteins in whole cells (MDA-MB-231 cells; listed as DB-6-055): non-specifically and globally alkylated intracellular proteins; fluorescent labeling of purified STAT5 (purified STAT5): non-specific fluorescent labeling of all three STAT isoforms; fluorescent labeling of purified STAT1 (purified STAT1): non-specific fluorescent labeling of all three STAT isoforms; pSTAT3 levels (immunoblot) [3]: dose-dependent decrease in pSTAT3 levels; fluorescent labeling of protein content of cell lysates (MDA-MB-231 cell lysates; 0, 100, 250, 500 μM, 16 h, 4°C): pronounced, non-specific, global labeling of the protein content; fluorescent labeling of protein content of cell lysates, O-tosyl vs sulfonamide probe (MDA-MB-231 cell lysates): promiscuously modified |
|  |  | Cc1ccc(S(=O)(=O)NCC(=O)N(Cc2cn(CCOCCOCCOCCNS(=O)(=O)c3cccc4c(N(C)C)cccc34)nn2)c2ccc(C(=O)O)c(O)c2)cc1 [4b] |  |  | fluorescent labeling of protein content of cell lysates, O-tosyl vs sulfonamide probe (MDA-MB-231 cell lysates): no observable fluorescent enhancement |
|  |  | CN(CC(=O)N(Cc1ccc(C2CCCCC2)cc1)c1ccc(C(=O)O)c(O)c1)S(=O)(=O)c1c(F)c(F)c(F)c(F)c1F [BP-1-102] | 0.5322 h⁻¹ | 1.879 |  |
| 5.14 | negligible reactivity with GSH | Cc1ccccc1CN(CC(=O)N(Cc1ccc(C2CCCCC2)cc1)c1ccc(C(=O)O)c(O)c1)S(=O)(=O)c1ccc(C(F)(F)F)cc1 [BP-5-087] | 0.1348 h⁻¹ | 7.417 |  |
| 25400 | no reactivity toward GSH | Cc1ccc(S(=O)(=O)NCC(=O)Nc2ccc(C(=O)O)c(O)c2)cc1 [DB-5-112] | 2.725e-05 h⁻¹ | 36701 |  |
|  |  | C[C@@H]1C=C2C(=O)O[C@@H]3CC[C@H](C1)[C@]23O [Galiellalactone] |  |  | cysteine residues of STAT3 covalently modified (MS/MS analysis) (STAT3): covalently modified three cysteine residues (367, 468, and 542) |
|  |  | Cc1ccc(S(=O)(=O)OCC(=O)Nc2ccc(C(=O)O)c(O)c2)cc1 [S3I-201] | 2.735 h⁻¹ | 0.3657 | IC50 (STAT3:DNA binding): ~100 µM; IC50 (activated STAT3 dimer): 86 µM; cysteine residues of STAT3 covalently modified (LC-MS/MS) [5]: covalently modified Cys108, Cys259, Cys367, Cys542, and Cys687; also recorded: five specific sites of modification, cysteine's 108, 259, 367, 542, and 687; also recorded: Cys residues (418, 426, and 712) were not alkylated |
| ~0.0409 | negligible reactivity with GSH | Cc1ccc(S(=O)(=O)N(C)CC(=O)N(Cc2ccc(C3CCCCC3)cc2)c2ccc(C(=O)O)c(O)c2)cc1 [SF-1-066] | ~ 16.95 h^−1 | ~ 0.05898 |  |
|  |  | CN(CC(=O)N(Cc1ccc(C2CCCCC2)cc1)c1ccc(C(=O)O)cc1)S(=O)(=O)c1c(F)c(F)c(F)c(F)c1F [SH-4-054] | 0.5147 h⁻¹ | 1.943 |  |
|  |  | O=[N+]([O-])c1ccc2c(c1)S(=O)(=O)C=C2 [Stattic] |  |  | cysteine residues of STAT3 modified (STAT3): Cys251, 259, 367, and 426 |
